Converted amounts (≈) assume the structure as drawn. A value given as a limit tells only on which side of the number the result lay.

This passage reports MIC and IC50 results from ChEMBL document CHEMBL5360634, “Turonicin A, an Antifungal Linear Polyene Polyketide from an Australian Streptomyces sp” (J Nat Prod, 2023).

One data set concerns Bacillus subtilis. Put plainly: Antibacterial activity against Bacillus subtilis ATCC 6633 assessed as inhibition of bacterial growth measured after 48 hrs by resazurin staining based analysis. It counts as functional.
A short description of data set [1]: Antiproliferative activity against mouse NS-1 cells assessed as inhibition of cell growth measured after 48 hrs by resazurin staining based analysis. The data set is classed as functional. Conditions: NS1, 48 h.
A further data set relates to Saccharomyces cerevisiae. Put plainly: Antifungal activity against Saccharomyces cerevisiae assessed as reduction in fungal growth measured after 48 hrs by resazurin staining based analysis. It counts as functional.
A short description of data set [2]: Cytotoxicity against human NFF cells assessed as inhibition of cell growth measured after 48 hrs by resazurin staining based analysis. It counts as toxicity.
For another data set, the system named is Candida albicans. Put plainly: Antifungal activity against Candida albicans ATCC 10231 assessed as reduction in fungal growth measured after 48 hrs by resazurin staining based analysis. The data set is classed as functional.
In the next data set the test system is Staphylococcus aureus. Put plainly: Antibacterial activity against Staphylococcus aureus assessed as inhibition of bacterial growth measured after 48 hrs by resazurin staining based analysis. It counts as functional.
A further data set deals with Tritrichomonas foetus. Kind of data set: Antiprotozoal activity against Tritrichomonas foetus KV-1 strain assessed as inhibition of protozoal growth measured after 72 hrs under anaerobic conditions. It counts as functional, organism-based. The following applies: KV-1, 72 h.

Turning to `C\C(=C/C=C/C=C/C=C/C=C/CC/C=C/[C@H](C)[C@H](O)[C@@H](C)[C@H](O)/C=C/C=C/C=C/C=C/C=C/C[C@H](O)[C@H](C)C(=O)C[C@H](O)C[C@H](O)C[C@H](O)/C=C/C[C@@H](O)C[C@H](O)C[C@@H](O)C[C@H](O)/C=C/C[C@H](O)/C=C/C[C@H](O)C[C@H](O)CCCN)C(=O)O`, the MIC came to 0.097 µg/mL (≈ 0.0832 µM) in the data set with Bacillus subtilis, 0.0002 µg/mL (≈ 0.000171 µM) in the data set on Saccharomyces cerevisiae, 0.0008 µg/mL (≈ 0.000686 µM) in the data set with Candida albicans and 1.5 µg/mL (≈ 1.29 µM) in the data set on Staphylococcus aureus. For the same compound, the 50% inhibitory concentration (IC50) (in data set [1]; with Tritrichomonas foetus) was over 80 µM each time. In data set [2], the IC50 at 48 h was over 80 µM.

In the case of `Cc1ncc([N+](=O)[O-])n1CCO` [METRONIDAZOLE], the IC50 in the data set on Tritrichomonas foetus amounted to 0.9 µM.

With `CN[C@H](CC(C)C)C(=O)N[C@H]1C(=O)N[C@@H](CC(N)=O)C(=O)N[C@H]2C(=O)N[C@H]3C(=O)N[C@H](C(=O)N[C@H](C(=O)O)c4cc(O)cc(O)c4-c4cc3ccc4O)[C@H](O)c3ccc(c(Cl)c3)Oc3cc2cc(c3O[C@@H]2O[C@H](CO)[C@@H](O)[C@H](O)[C@H]2O[C@H]2C[C@](C)(N)[C@H](O)[C@H](C)O2)Oc2ccc(cc2Cl)[C@H]1O` [VANCOMYCIN], the MIC turned out to be 0.05 µg/mL (≈ 0.0345 µM) with Bacillus subtilis and 0.8 µg/mL (≈ 0.552 µM) in the data set on Staphylococcus aureus.

For the compound `C\C(=C/C=C/C=C/C=C/CC/C=C/[C@H](C)[C@H](O)[C@@H](C)[C@H](O)/C=C/C=C/C=C/C=C/C=C/C[C@H](O)[C@H](C)C(=O)C[C@H](O)C[C@H](O)C[C@H](O)/C=C/C[C@@H](O)C[C@H](O)C[C@@H](O)C[C@H](O)/C=C/C[C@H](O)/C=C/C[C@H](O)C[C@H](O)CCCN)C(=O)O`, the MIC in the data set on Bacillus subtilis was 0.39 µg/mL (≈ 0.342 µM); in the data set with Saccharomyces cerevisiae, 0.0004 µg/mL (≈ 0.000351 µM); in the data set on Candida albicans, 0.0015 µg/mL (≈ 0.00132 µM); in the data set on Staphylococcus aureus it was 3.1 µg/mL (≈ 2.72 µM). The IC50 (in data set [1]; with Tritrichomonas foetus) was over 80 µM each time. In addition, the IC50 at 48 h in data set [2] is over 80 µM.

Take `C\C(=C/C=C/C=C/C=C/CC/C=C/[C@H](C)[C@H](O)[C@@H](C)[C@H](O)/C=C/C=C/C=C/C=C/C=C/C[C@H](O)[C@H](C)C(=O)C[C@H](O)C[C@H](O)C[C@H](O)/C=C/C[C@@H](O)C[C@H](O)C[C@@H](O)C[C@H](O)/C=C/C[C@H](O)/C=C/C[C@H](O)CCCNC(=N)N)C(=O)O`: the MIC was 0.097 µg/mL (≈ 0.0852 µM) in the data set on Bacillus subtilis, 0.0008 µg/mL (≈ 0.000703 µM) in the data set on Saccharomyces cerevisiae, 0.0031 µg/mL (≈ 0.00272 µM) in the data set on Candida albicans and 0.39 µg/mL (≈ 0.343 µM) in the data set on Staphylococcus aureus. Further, the results for the IC50 (in data set [1]; in the data set with Tritrichomonas foetus) were 44 µM and over 80 µM, respectively. The half-inhibitory concentration (IC50) at 48 h in data set [2] is over 80 µM.

With `CSC[S@+]([O-])C[C@H](CO)NC(=O)/C=C/c1c(C)[nH]c(=O)[nH]c1=O`, in data set [1], the half-inhibitory concentration (IC50) came out at 0.4 µM. Moreover, in data set [2], the IC50 at 48 h was found to be 1.2 µM.

On to `Clc1ccccc1C(c1ccccc1)(c1ccccc1)n1ccnc1` [CLOTRIMAZOLE], for which the values for the MIC in the data set with Saccharomyces cerevisiae and in the data set with Candida albicans were 0.4 µg/mL (≈ 1.16 µM) and 0.1 µg/mL (≈ 0.29 µM), respectively.
